Active and inactive are the calls of the source. No stated cut-off is given here; in the data, actives have a measured IC50 and inactives only a lower limit.
target: Envelope glycoprotein gp160 (Human immunodeficiency virus 1, UniProt Q6QLK5); assay: inhibitors of HIV fusion peptide binding, primary screen, biochemical, uHTS, fluorescence dequenching (AID 1986)
Sequence (Q6QLK5 whole entry, the tested form may be a part): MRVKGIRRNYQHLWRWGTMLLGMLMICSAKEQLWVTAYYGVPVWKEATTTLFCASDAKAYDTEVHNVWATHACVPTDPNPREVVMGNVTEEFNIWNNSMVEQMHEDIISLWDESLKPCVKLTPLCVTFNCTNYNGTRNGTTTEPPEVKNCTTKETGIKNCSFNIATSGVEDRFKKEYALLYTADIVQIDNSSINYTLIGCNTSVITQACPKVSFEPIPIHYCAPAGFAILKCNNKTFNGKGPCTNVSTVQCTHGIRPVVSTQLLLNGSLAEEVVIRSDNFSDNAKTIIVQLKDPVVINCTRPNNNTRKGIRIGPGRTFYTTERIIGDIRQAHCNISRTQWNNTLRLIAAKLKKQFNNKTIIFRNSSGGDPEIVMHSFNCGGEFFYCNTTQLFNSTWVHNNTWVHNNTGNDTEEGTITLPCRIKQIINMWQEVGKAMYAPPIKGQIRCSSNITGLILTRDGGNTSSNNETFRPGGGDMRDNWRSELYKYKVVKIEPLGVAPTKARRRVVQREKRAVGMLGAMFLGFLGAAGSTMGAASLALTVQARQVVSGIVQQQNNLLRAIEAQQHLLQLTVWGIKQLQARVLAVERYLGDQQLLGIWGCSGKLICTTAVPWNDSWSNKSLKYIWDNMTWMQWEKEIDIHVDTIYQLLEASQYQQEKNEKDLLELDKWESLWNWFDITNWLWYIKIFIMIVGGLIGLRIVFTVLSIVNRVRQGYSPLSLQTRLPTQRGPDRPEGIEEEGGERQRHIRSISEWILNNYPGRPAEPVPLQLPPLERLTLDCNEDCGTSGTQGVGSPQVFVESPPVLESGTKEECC

SMILES	IC50
COc1cc(/C=C2\SC(=S)NC2=O)ccc1OS(=O)(=O)c1ccccc1	18 µM (active)
CCOc1ccc(NC(=NCc2ccc3c(c2)OCO3)SC2CC(=O)N(c3ccc(C(=O)O)cc3)C2=O)cc1 (stereo not drawn)	25.9 µM (active)
CC(Oc1ccc(Cl)cc1Cl)C(=O)Nc1ccc(S(=O)(=O)Nc2cnc3ccccc3n2)cc1 (stereo not drawn)	15.7 µM (active)
